Test results published in article PMC4249368 (Antimicrobial Agents and Chemotherapy, 2014).
Values after ≈ are worked out from the molar mass of the structure shown. “Also recorded” adds a separate entry of the source.

Columns and labels:
[1] = SPR binding to lipid bilayers on Biacore L1 chip; settings: for normalized antibiotic bound to the three lipid bilayers (result in words): 10 μM, normalized to molecular weight and RULipid, Fig. 3B, n = 3
Protocol: Lipid stock solutions were prepared in chloroform and mixed at the described mass composition of POPC, POPC/POPG (8:2, wt/wt) and POPC/POPE (8:2, wt/wt) ([33]), and the chloroform was evaporated as previously described ([34]). The lipids were resuspended in 1 ml of filtered (0.22-μm pore size) running buffer (phosphate-buffered saline [PBS]; pH 7.3) and then sonicated for 25 min in 5-min intervals. Small unilamellar vesicles (SUVs) were prepared by extrusion through a polycarbonate filter with a 50-nm pore diameter ([35]).
SPR experiments were carried out with a Biacore T200 system (GE Health, Australia) using a Biacore vesicle capture (L1) sensor chip, which has lipophilic groups covalently attached to carboxymethylated dextran that facilitates direct lipid bilayer deposition ([34], [36]). All measurements were undertaken at a temperature of 25°C to maintain the lipid bilayer fluidity ([34]). SUVs at a total lipid concentration of 0.5 mg/ml were immediately passed across the chip surface for 60 min at a low flow rate of 2 μl/min, following three 30-s injections of 20 mM 3-cholamidopropyl-dimethylammonio-1-propane sulfonate (CHAPS) solution at a high flow rate of 30 μl/min to completely remove the captured vesicles from the sensor chip. To remove any multilamellar structures from the lipid surface and to stabilize the baseline, 10 mM NaOH was injected for 1 min at 50 μl/min. The coverage extent of the surface was later determined by a 5-min injection of 0.1 mg/ml bovine serum albumin (BSA) at a flow rate of 10 μl/min.
The antibiotics were serially diluted in running buffer and then injected sequentially from the lowest (0.01 μM) to the highest (10 μM) concentration at a flow rate of 20 μl/min for 180 s, followed by a dissociation of 300 s and a 1-min regeneration with 10 mM HCl at a flow rate of 10 μl/min. SPR experiments were performed in triplicate. The actual amount of antibiotic bound to each lipid bilayer was corrected by subtraction of the bulk refractive index difference (buffer control) and then normalized by dividing the antibiotic-bound resonance units (RUBound) obtained in the SPR sensorgrams (see Fig. 3A, below) by the corresponding antibiotic molecular weight and the resonance units of the individual lipid vesicle captured on the chip surface (RULipid) (see Fig. S1 in the supplemental material) by using the following equation: normalized antibiotic bound = (10^3 × RUBound)/(molecular weight × RULipid). Normalization against molecular weight and RULipid was necessary, as SPR units are mass dependent and RULipid values vary according to lipid type ([37]).

MSSA ATCC 25923 [2] = experiment: TEM examination of bacterial ultrastructure; assay type: cell-based, Staphylococcus aureus; settings: 3 h, 37°C, CA-MHB
Protocol: After centrifugation (8,000 × rpm, 3 min), the pellets were resuspended in 1 ml of 3% (vol/vol) glutaraldehyde in 0.1 M sodium cacodylate. Glutaraldehyde–fixed samples were washed twice with 0.1 M sodium cacodylate. To postfit cells, 1% (wt/vol) osmium tetraoxide was added. After the wash step, samples were stained with 2% (wt/vol) uranyl acetate in 50% ethanol. Samples were then dehydrated with graded ethanol solutions and infiltrated with Epon resin (ProSciTech, Townsville, Australia). All processes were performed on a Pelco 34700 Biowave microwave oven (Ted Pella Inc., Redding, CA). Ultrathin sections were cut at 60 to 70 nm by using a UC6 ultramicrotome (Leica). The sections were examined in a JEM 1011 TEM operated at 80 kV and photographed using a digital camera.

MSSA ATCC 25923 [3] = experiment: Membrane depolarization assay with DiSC3(5); assay type: cell-based, Staphylococcus aureus
Protocol: Antibiotic-induced bacterial cytoplasmic membrane depolarization was determined by using the fluorescent dye 3,3-dipropylthiacarbocyanine [DiSC3(5); Sigma-Aldrich, Australia] as previously described ([38]) with a high-throughput modification. Briefly, mid-logarithmic-phase MSSA ATCC 25923 cells were collected by centrifugation (5,000 × rpm, 10 min), washed once and diluted to approximately 5 × 10^7 CFU/ml in buffer (5 mM HEPES, 5 mM glucose; pH 7.2). The cell suspension was incubated with 0.4 μM DiSC3(5) until dye uptake was maximal, as indicated by a stable reduction in fluorescence of assay medium. KCl at 100 mM was added to equilibrate the cytoplasmic and external K^+ concentrations. A 90-μl aliquot of cell suspension was transferred into an Optiplate 96-well white microplate (PerkinElmer Corp., Australia), and 10 μl of antibiotic was added, to yield a series of solutions ranging from 0.1 to 30 μM. A blank with only cell suspension and dye was used for background subtraction. The fluorescence intensity was monitored in real time by using a BMG Labtech PolarStar Omega multimode reader fitted with 620-10 and 665-10 excitation and emission filters, respectively, at an excitation wavelength of 622 nm and an emission wavelength of 670 nm. The membrane depolarization assays were performed in triplicate, and the fluorescence leakage (FL) was defined by the following equation: FL = (FF − FB) − (FI − FB). Here, FF was the final fluorescence intensity in assay medium after 30 min of treatment with antibiotic, FI was the initial fluorescence intensity of the cell suspension, and FB was the fluorescence intensity of the blank.

MSSA ATCC 25923 [4] = settings: for MIC in the presence of 50% human serum: MHB with 50% human serum, broth microdilution
Protocol: MSSA ATCC 25923 was purchased from the American Type Culture Collection (Manassas, VA). Mueller-Hinton broth (MHB; Bacto Laboratories Pty. Ltd.) was used to grow MSSA for determination of in vitro antibacterial activity in the presence and absence of 50% human serum (Life Technologies Australia, Melbourne, Australia) and time-kill assays. Luria-Bertani (LB) medium (Difco) and MHB adjusted with Ca^2+ (25 mg/liter) and Mg^2+ (12.5 mg/liter) (CA-MHB) were used for bacterial growth in the membrane depolarization assay and TEM, respectively. The phospholipids used for SPR analysis, 1-palmitoyl-2-oleoyl-sn-glycero-3-phosphoglycerol (POPG), 1-palmitoyl-2-oleoyl-sn-glycero-3-phosphocholine (POPC), and 1-palmitoyl-2-oleoyl-sn-glycero-3-phosphoethanolamine (POPE), were purchased from Auspep Pty. Ltd. (Melbourne, Australia).
MICs against MSSA ATCC 25923 were measured by broth microdilution according to the Clinical and Laboratory Standards Institute (CLSI) M7-A7 methodology ([30]). Briefly, serial 2-fold dilutions of each antibiotic were added into Costar nontreated polystyrene 96-well plates, and each well was inoculated with 50 μl of MSSA in MHB to a final concentration of approximately 5 × 10^5 CFU/ml. […] The dilution representing the MIC and two of the more and less concentrated dilutions were plated out onto Trypticase soy agar plates and enumerated to determine viable CFU/ml ([31]).

| Molecule | normalized antibiotic bound to the three lipid bilayers (result in words) [1] | morphological changes by TEM (MSSA ATCC 25923 [2]; 16× MIC) | fluorescence leakage (MSSA ATCC 25923 [3]; 12× MIC, 30 min) | MIC in the presence of 50% human serum (MSSA ATCC 25923 [4]; 24 h, 37°C) [µg/mL] | MIC (MSSA ATCC 25923 [4]; MHB, broth microdilution CLSI M7-A7, ~5 × 10^5 CFU/ml, 24 h, 37°C, Costar nontreated polystyrene 96-well plates) [µg/mL] | MIC, 10% Human serum (MSSA ATCC 25923 [4]; Table S1, MHB with 10% human serum, Corning NonTC plates) | MIC, 50% Human serum (MSSA ATCC 25923 [4]; Table S1, MHB with 50% human serum, Corning NonTC plates) [µg/mL] | MIC, MHB (MSSA ATCC 25923 [4]; Table S1, MHB without serum, Corning NonTC microtitre plates (CLS3370)) [µg/mL] | SPR dissociation after completion of injection ([1]; 0.01 to 1 μM) | SPR association with membranes at low concentrations ([1]; 0.01 to 1 μM, PBS pH 7.3, 25°C) | SPR binding response (RUBound) ([1]; 3 and 10 μM, both anionic and zwitterionic membranes, 180 s injection, PBS pH 7.3, 25°C) | concentration at which binding to anionic and zwitterionic membranes occurs ([1]; dose-dependent) [µM] | morphological changes by TEM (MSSA ATCC 25923 [2]; 1× MIC) | membrane depolarization (result in words) (MSSA ATCC 25923 [3]; 30 min treatment, 0.1 to 30 μM, Fig. 4, n = 3) |
| --- | --- | --- | --- | --- | --- | --- | --- | --- | --- | --- | --- | --- | --- | --- |
| CN[C@H](CC(C)C)C(=O)N[C@H]1C(=O)N[C@@H](CC(N)=O)C(=O)N[C@H]2C(=O)N[C@H]3C(=O)N[C@H](C(=O)N[C@H](C(=O)O)c4cc(O)cc(O)c4-c4cc3ccc4O)[C@H](O)c3ccc(c(Cl)c3)Oc3cc2cc(c3O[C@@H]2O[C@H](CO)[C@@H](O)[C@H](O)[C@H]2O[C@H]2C[C@](C)(N)[C@H](O)[C@H](C)O2)Oc2ccc(cc2Cl)[C@H]1O [vancomycin] | negligible binding to each of the three different membranes | did not cause septal deformation or loss of midline | no leakage | 2 | 1 (≈ 0.69 µM) | 1/2 | 2 (≈ 1.38 µM) | 2 (≈ 1.38 µM) |  |  |  |  |  |  |
| ramoplanin | POPC:POPG (8:2) > POPC > POPC:POPE (8:2) |  |  | 0.5 |  |  |  |  | complete dissociation | negligible association | ~6,000 RU | ≥ 3 | deformed septa that were slightly thickened, misshapen, and lacked distinct septal midlines; also recorded: appearance of mesosome structures in cell membranes | dose-dependent membrane depolarization but less efficiently than nisin |
